One assay concerns 4T1 tumor. Nature of the assay: Tumor models in immunodeficient mice. As to conditions: immunodeficient mice bearing the same tumors, FIG. 7C. It counts as in vivo, athymic nude mice. An excerpt: (§1) MBT-2 cells were obtained from the Japanese Collection of Research Bioresources Cell Bank and were maintained in DMEM supplemented with 10% FBS. MC38 cells were obtained from the NCI. 4T1 cells were obtained from ATCC and maintained in RPMI media supplemented with 10% FBS. For MBT-2 experiments, 5×10^5 MBT-2 cells were inoculated subcutaneously into the right hind flank of 6- to 8-week-old C3H mice or athymic nude mice (Charles River Laboratories, Wilmington, Mass.). For MC38 studies, 12-week old female C57BL/6 mice were inoculated with brei of MC38 tumors (in-vivo passage 6) into the right hind flank. For 4T1 studies, 7.5×10^5 4 T1 cells were inoculated subcutaneously into the right hind flank of 6- to 8-week-old female BALB/c mice or athymic nude mice (Charles River Laboratories). Mice were randomized by tumor volume with n=10-12 per group. […] Mice were monitored for tumor growth and overt tolerability over the course of the experiment. […] Tumor volume was calculated using the formula (L×W^2)/2, where L and W refer to the length and width dimensions, respectively. Tumor growth inhibition (TGI) was calculated using the formula (1−(VT/VC))×100, where VT is the tumor volume of the treatment group on the last day of treatment, and VC is the tumor volume of the control group on the last day of treatment. […]

The test system of the next assay is MBT-2 tumor. The experiment in a line: MBT-2 syngeneic tumor model. It counts as in vivo. As to conditions: MBT-2 in C3H mice, oral BID, FIG. 7A. Here is the method:
To test potential immunomodulatory activity of Compound 1 in vivo, antitumor efficacy studies were performed in syngeneic tumor models.
as §1, with “Laboratories).” for “Laboratories). Mice were randomized by tumor volume with n=10-12 per group.”

The test system of the next assay is CTG-1339 tumors. The experiment in a line: Sarcoma PDX model CTG-1339 (osteosarcoma). It counts as in vivo, athymic nude mice. The protocol: Macrophages were allowed to thaw on ice before being lysed with 250 μL/well of 1× Lysis Buffer (Cell Signaling Technology; #9803) and Halt protease and phosphatase inhibitors (ThermoFisher Scientific) for 1 hour at 4° C. The lysed cells were scraped and transferred to an Eppendorf vial on ice. The lysates were centrifuged at 12,700 rpm for 15 minutes at 4° C. PDX tumors were weighed and homogenized with lysis buffer supplemented with protease and phosphatase inhibitor cocktails (Roche, Basel, Switzerland; #11836170001). Tumors were lysed on ice for 30 minutes, followed by centrifugation at 13,000 rpm for 10 minutes. Protein lysates were quantified using BCA Protein Assay Kit (Pierce, ThermoFisher Scientific; #23225). Lysates were transferred to a new tube together with 6× Laemmli SDS sample buffer (Alfa Aesar, Haverhill, Mass.) and the samples were heated for 6 minutes at 95° C. Approximately 50 μg of protein sample was loaded per well using Novex™ 8-16% Tris-Glycine Mini Gels or 4-12% Tris-Glycine Novex WedgeGels (Invitrogen, Carlsbad, Calif.). The proteins were transferred to a nitrocellulose membrane using an iBlot (ThermoFisher Scientific) dry blotting system. The membranes were blocked with 0.5% nonfat dry milk in wash buffer (100 mM NaCl, 10 mM Tris-HCl, pH 8.0, 0.1% Tween 20) for 1 hour at room temperature. The primary antibody used for pMER was from PhosphoSolutions (Aurora, Colo.; #p186-749). The remaining antibodies were obtained from Cell Signaling Technology: MER (#4319), pAXL (#5724), AXL, (#4566), GAS6 (#67202), pAKT (#4060), AKT (#9272), and β-Actin (#4970). Primary antibodies were added at 1:500 and 1:1000, respectively, in 0.5% milk/wash buffer and rocked overnight at 4° C. The membranes were washed three times in wash buffer before incubation with the secondary antibody (anti-rabbit IgG1-HRP; Cell Signaling Technology) at 1:2500 in 0.5% milk/wash buffer for 2 hours at room temperature. The membranes were washed again before the bands were detected with SuperSignal West Dura Extended Duration Chemiluminescent substrate (ThermoFisher Scientific) and were visualized using the Fluorochem M Digital Imager (Protein Simple, San Jose, Calif.).
MBT-2 cells were obtained from the Japanese Collection of Research Bioresources Cell Bank and were maintained in DMEM supplemented with 10% FBS. MC38 cells were obtained from the NCI. 4T1 cells were obtained from ATCC and maintained in RPMI media supplemented with 10% FBS. For MBT-2 experiments, 5×10^5 MBT-2 cells were inoculated subcutaneously into the right hind flank of 6- to 8-week-old C3H mice or athymic nude mice (Charles River Laboratories, Wilmington, Mass.). […] Mice were monitored for tumor growth and overt tolerability over the course of the experiment. […]

Regarding `CC(C)C(=O)N1CCC(c2cc(-c3ccc(NC(=O)c4cn(C(C)C)c(=O)n(-c5ccccn5)c4=O)cc3)c3c(N)ncnn23)CC1` [Compound 1, N-(4-(4-Amino-7-(1-isobutyrylpiperidin-4-yl)pyrrolo[1,2-f][1,2,4]triazin-5-yl)phenyl)-1-isopropyl-2,4-dioxo-3-(pyridin-2-yl)-1,2,3,4-tetrahydropyrimidine-5-carboxamide], the “antitumor activity in immunodeficient mice” value in the assay on 4T1 tumor was “no activity”. For the same compound, the “antitumor efficacy (tumor volume)” value with MBT-2 tumor is given as “dose-dependent efficacy”. The antitumor response entry with CTG-1339 tumors (CTG-1339, 10, 30, 100 mg/kg BID oral, FIG. 9C) is recorded as “resistant”. In the assay on CTG-1339 tumors (CTG-1339 tumors, FIG. 9D), the “pAKT in tumors (Western blot)” value was “only inhibited in CTG-2041”; the “pAXL and pMER in tumors (Western blot)” value is on record as “inhibited”; the “total MER levels in tumors (Western blot)” value is listed as “increased”.
